The results in this text go back to ChEMBL document CHEMBL2413076, “Synthesis and biological evaluation of ursolic acid-triazolyl derivatives as potential anti-cancer agents” (Eur J Med Chem, 2013).

The test system of series [1] is MCF7. Put plainly: Growth inhibition of human MCF7 cells assessed as dead cells at 1 uM after 48 hrs by sulforhodamine-B assay relative to control. Format: functional. The settings on record: MCF7, 48 h, read-out: GI.
Series [2] has as its system A549. As to the kind of experiment: Growth inhibition of human A549 cells assessed as dead cells at 1 uM after 48 hrs by sulforhodamine-B assay relative to control. The class given is functional. The settings on record: A549, 48 h, read-out: GI.
In series [3] the test system is A549. Put plainly: Growth inhibition of human A549 cells after 48 hrs by sulforhodamine-B assay. Format: functional, cell-based. The settings on record: A549, 48 h.
Series [4] deals with MCF7. As to the kind of experiment: Growth inhibition of human MCF7 cells assessed as dead cells at 10 uM after 48 hrs by sulforhodamine-B assay relative to control. Format: functional. The settings on record: MCF7, 48 h, read-out: GI.
Series [5] concerns THP-1. As to the kind of experiment: Growth inhibition of human THP1 cells assessed as dead cells at 50 uM after 48 hrs by sulforhodamine-B assay relative to control. The class given is functional. Particulars: THP-1, 48 h, read-out: GI.
A short description of series [6]: Growth inhibition of human FR2 cells assessed as dead cells at 50 uM after 48 hrs by sulforhodamine-B assay relative to control. Particulars: read-out: GI. Format: cell-based.
Series [7] can be described thus: Growth inhibition of human FR2 cells assessed as dead cells at 10 uM after 48 hrs by sulforhodamine-B assay relative to control. The class given is cell-based. Particulars: read-out: GI.
The test system of series [8] is HCT-116. Put plainly: Growth inhibition of human HCT116 cells assessed as dead cells at 50 uM after 48 hrs by sulforhodamine-B assay relative to control. The class given is functional. Particulars: HCT-116, 48 h, read-out: GI.
Series [9] can be described thus: Growth inhibition of human FR2 cells after 48 hrs by sulforhodamine-B assay. Format: cell-based. The settings on record: FR2, 48 h.
Series [10] has as its system HCT-116. Put plainly: Growth inhibition of human HCT116 cells after 48 hrs by sulforhodamine-B assay. Particulars: HCT-116, 48 h. Format: functional, cell-based.
Series [11] has as its system A549. As to the kind of experiment: Growth inhibition of human A549 cells assessed as dead cells at 50 uM after 48 hrs by sulforhodamine-B assay relative to control. Format: functional. The settings on record: A549, 48 h, read-out: GI.
In series [12] the test system is A549. As to the kind of experiment: Growth inhibition of human A549 cells assessed as dead cells at 10 uM after 48 hrs by sulforhodamine-B assay relative to control. The class given is functional. Particulars: A549, 48 h, read-out: GI.
The subject of series [13] is MCF7. Put plainly: Growth inhibition of human MCF7 cells assessed as dead cells at 50 uM after 48 hrs by sulforhodamine-B assay relative to control. Particulars: MCF7, 48 h, read-out: GI. The class given is functional.
The subject of series [14] is THP-1. Put plainly: Growth inhibition of human THP1 cells assessed as dead cells at 10 uM after 48 hrs by sulforhodamine-B assay relative to control. Format: functional. Particulars: THP-1, 48 h, read-out: GI.
In series [15] the test system is THP-1. Put plainly: Growth inhibition of human THP1 cells after 48 hrs by sulforhodamine-B assay. The settings on record: THP-1, 48 h. Format: functional, cell-based.
In series [16] the test system is HCT-116. Put plainly: Growth inhibition of human HCT116 cells assessed as dead cells at 10 uM after 48 hrs by sulforhodamine-B assay relative to control. Format: functional. The settings on record: HCT-116, 48 h, read-out: GI.
The subject of series [17] is MCF7. As to the kind of experiment: Growth inhibition of human MCF7 cells after 48 hrs by sulforhodamine-B assay. The class given is functional, cell-based. Particulars: MCF7, 48 h.
The test system of series [18] is A549. As to the kind of experiment: Growth inhibition of human A549 cells assessed as dead cells at 20 uM after 48 hrs by sulforhodamine-B assay relative to control. Format: functional. Particulars: A549, 48 h, read-out: GI.
The subject of series [19] is HCT-116. As to the kind of experiment: Growth inhibition of human HCT116 cells assessed as dead cells at 20 uM after 48 hrs by sulforhodamine-B assay relative to control. Format: functional. Particulars: HCT-116, 48 h, read-out: GI.
Series [20] relates to THP-1. Put plainly: Growth inhibition of human THP1 cells assessed as dead cells at 20 uM after 48 hrs by sulforhodamine-B assay relative to control. The class given is functional. Particulars: THP-1, 48 h, read-out: GI.

The structures appear in SMILES notation.

`CO[C@@]12[C@H](COC(N)=O)C3=C(C(=O)C(C)=C(N)C3=O)N1C[C@@H]1N[C@@H]12` [MITOMYCIN]: the figures for the inhibition of growth at 1 µM in the series on MCF7 [1] and in the series on A549 [2] were 82% and 70%, respectively.
In the case of `Cc1ccc(-n2cc(COC(=O)[C@]34CC[C@@H](C)[C@H](C)[C@H]3C3=CC[C@@H]5[C@@]6(C)CCC(=O)C(C)(C)[C@@H]6CC[C@@]5(C)[C@]3(C)CC4)nn2)cc1C`, the IC50 was 0.5 µM with A549 [3]; 10 µM in series [9]; less than 0.1 µM in the series with HCT-116 [10]; 0.9 µM in the series with THP-1 [15]; 5.5 µM with MCF7 [17]. Besides, the inhibition of growth at 10 µM was found to be 69% with MCF7 [4], 74% with A549 [12], 82% in the series with THP-1 [14] and 91% in the series on HCT-116 [16]. The inhibition of growth at 50 µM is 94% with THP-1 [5], 99% in the series on HCT-116 [8], 93% in the series on A549 [11] and 99% with MCF7 [13]. Besides, in [6], the inhibition at 48 h, 50 µM was 85%. In [7], the inhibition at 48 h, 10 µM worked out at 68%.
As to `C[C@H]1[C@H](C)CC[C@]2(C(=O)OCc3cn(-c4ccccc4)nn3)CC[C@]3(C)C(=CC[C@@H]4[C@@]5(C)CCC(=O)C(C)(C)[C@@H]5CC[C@]43C)[C@H]12`, the IC50 with A549 [3] was determined as 24 µM; in series [9], 82 µM; in the series with HCT-116 [10], 14 µM; with THP-1 [15] it was 11 µM; with MCF7 [17], 39 µM. The inhibition of growth at 10 µM was found to be 28% in the series with MCF7 [4], 43% with A549 [12], 54% in the series on THP-1 [14] and 44% in the series with HCT-116 [16]. Also, the inhibition of growth at 50 µM turned out to be 83% in the series with THP-1 [5], 78% in the series with HCT-116 [8], 64% with A549 [11] and 51% in the series with MCF7 [13]. In series [6], the inhibition at 48 h, 50 µM was 45%. Also, in series [7], the inhibition at 48 h, 10 µM was determined as 12%.
Turning to `O=c1[nH]cc(F)c(=O)[nH]1` [FLUOROURACIL], the figures for the inhibition of growth at 20 µM with A549 [18], with HCT-116 [19] and in the series on THP-1 [20] were 86%, 76% and 96%, respectively.
